# Columns and labels:
# [1] = test system: CD14; experiment: LPS binding to CD14 (plate assay with soluble CD14 Ig); details: E. coli AO16 LPS, 2 hours at 4° C., FIG. 14
# Method: 96-well plates were coated with goat-anti human Ig, soluble CD-1 4 Ig was added, and the plates were incubated overnight at 4° C. The BMS polypeptide, the C-MYCMEM polypeptide, an SV40 NLS polypeptide containing a single SV40 large T-antigen NLS, a c-myc NLS without a translocation sequence (AKRVKL (SEQ ID NO:6)), a control non-NLS polypeptide, 377G, or PBS, were added to the plates and the plates were incubated for 5 min. E. coli AO16 LPS was then added to the plates and the plates were incubated for 2 hours at 4° C. The plates were washed and LPS was detected using 0.5 μg/ml mouse anti-E. coli LPS, followed by goat anti-mouse horseradish peroxidase.
# [2] = test system: Splenic T-cells from BALB/c mice; experiment: Mouse splenic T-cell proliferation ([3H]-thymidine); format: cell-based; details: 0.5 or 2.0 μM, FIG. 16
# Method: Splenic T-cells from BALB/c mice were isolated by glass wool chromatography and treated with either 0.5 or 2.0 μM peptide in 96 well plates for 2 hours followed by activation with either anti-CD3 alone ([…]), PMA alone (1 ng/ml), anti-CD3 plus anti-CD28 ([…] each) or anti-CD28 plus PMA ([…] and 1 ng/ml, respectively). Plates were coated with antibody 24 hours prior to activation. Proliferation was determined after 72 hours by pulsing for 8 hours with [^3 H]-thymidine, and determining radioactivity incorporated into DNA.
# [3] = test system: 70Z/3 murine leukemia pre-B cells; experiment: LPS-stimulated surface antigen expression (κ Ig light chain, IL-2 receptor, CD45) in 70Z/3 cells; format: cell-based; details: dose-response data, FIG. 1B
# Method: Expression of κ Ig, CD45, CD40, and the interleukin-2 receptor was assayed using standard enzyme-linked immunosorbent assays ("ELISAs") (see, Coligan et al. (eds.) (1991) Current Protocols in Immunology, Wiley & Sons, p. 2.10 or by FACS staining to measure cell-surface markers as described in Raff (1970) Immunology 19:637). Antibodies form cell surface markers were obtained from Pharmingen Co.
# The effect of the SV40MEM polypeptide was compared with two additional polypeptides, […] (SEQ ID NO:2) (the "HIV-1MEM" polypeptide), which is composed of the membrane translocation domain of FGF flanked by the NLS from the HIV-1 matrix protein and […] (SEQ ID NO:3) (the "C-MYCMEM" polypeptide), which contains the NLS from the human c-myc oncoprotein (Chelsky et al. (1989), supra, and Dang et al. (1988), supra) using murine 70Z/3 pre-B cells.
# Murine 70Z/3 cells (ATCC TlD-158) are a model cell line for analyzing the effects of compounds on B-cell differentiation. In response to S. typhosa LPS (Difco) or γ-interferon, these cells differentiate from surface κ immunoglobulin negative to κ Ig positive.
# […] of: (1) a peptide containing only the FGF signal sequence AAVALLPAVLLALLAP (SEQ ID NO:4) (the "MEM" peptide); (2) a polypeptide having the FGF signal sequence and the NLS of NF-κB p50 on the carboxy terminus of the signal sequence, namely, the NF-κBMEM polypeptide; (3) the SV40MEM polypeptide comprised of L-amino acids; or (4) the SV40MEM polypeptide comprised of D-amino acids. The cells were then incubated with LPS as described in Example 2 and assayed for expression of κ light chain expression.
# [4] = test system: BALB/c mice immunized with KLH; experiment: Anti-hemocyanin (KLH) response in mice; format: in vivo; details: 5 mg/kg day 0 plus 5 doses every other day, serum day 14, FIG. 12
# Method: Female BALB/c mice (8 weeks of age) were immunized by intraperitoneal injection of 25 μg keyhole limpet (Megathura crenulata) hemocyanin ("KLH") (Pacific Bio-Marine Laboratories, Venice, Calif.) without adjuvant on day 0. Mice were divided into groups of five and inhibitory peptides C-MYCMEM and BMS-205820 ([…] (SEQ ID NO:24)), which is identical to the SV40MEM polypeptide with the exception that the polypeptide lacks the C-terminal cysteine, were administered on day 0 at 5 mg/kg, followed by 5 subsequent doses of the same concentration every other day. Control mice were treated with a single 200-μg dose of Chimeric L6 antibody ("Chi L6"). After 14 days, the mice were bled from the orbital sinus and the level of anti-KLH antibodies were measured in the serum by ELISA as described in Example 11.
sequence,measurement,setting,value
"AKRVKLAAVALLPAVLLALLAKRVKLC [C-MYCMEM, contains the NLS from the human c-myc oncoprotein]",binding of LPS to CD14,[1],block it from binding CD14
same,T cell proliferation,"[2]; stimulated with PMA + anti-CD28, 2 hours pretreatment",inhibited
same,T cell proliferation,"[2]; stimulated with anti-CD3 + anti-CD28, 2 hours pretreatment",augmentation of proliferation
same,efficacy at inhibiting κ Ig light chain production (comparison of three polypeptides),[3],approximately equally efficacious
same,potency at inhibiting κ Ig light chain production compared with SV40MEM,[3],not as potent
same,specific anti-KLH response,[4],inhibited
